The values that follow come from patent US10612068B2, “Culture medium containing a spore germination inhibiting or delaying compound” (BIOMERIEUX, priority 2008, dated 2020).

For test [1], the system named is Bacillus licheniformis spores. Conditions: L-alanine dehydrogenase dependent first step; cited from earlier work.
In test [2] the test system is Bacillus (Bacillus licheniformis, Bacillus thuringiensis/cereus) present in sporulated form. Kind of test: Milk powder samples not contaminated with Staphylococcus aureus incubated in culture medium with or without D-alanine; fluorescence reading and MPN count of nonspecific growth. The class given is cell-based. On the procedure: The example described hereinafter illustrates the inhibiting effect of D-alanine on the […] of microorganisms of Bacillus type (such as Bacillus licheniformis, Bacillus thuringiensis/cereus).
To do this, 59 samples of milk powder products liable to contain Bacillus microorganisms, also not contaminated with Staphylococcus aureus, were tested.
In order to study the inhibiting effect of D-alanine, two culture media were tested:
Medium 1: culture medium without D-alanine,
Medium 2: culture medium in the presence of D-alanine at a final concentration in the medium of between 0.05 and 0.1 mol/l (final concentration in the medium).
The composition of said culture medium is the following (in g/l, final concentration in the medium with or without D-alanine):
The samples were prepared according to ISO standard 8261: 2001 (concerning milk and milk products and relating to the “general guidelines for the preparation of test samples, of the stock suspension and of the decimal dilutions for the purpose of microbiological examination”) according to the following steps: • a) 10 grams of the sample are weighed out and placed in a Stomacher® bag, • b) 90 ml of tryptone salt diluent preheated to 45° C. are added so as to obtain an initial 1/10 dilution of the sample, • c) grinding is carried out using a Stomacher® machine for one minute, • d) the Stomacher® bag is placed in a water bath and stirred for 5 minutes at 45° C., • e) 1 ml of the sample (diluted to 1/10) is taken and placed in 3 ml of culture medium so as to obtain a 1/40 dilution, • f) incubation is carried out for a period of between 24 and 27 hours at a temperature of 37° C., • g) the culture medium is read by fluorescence and the level of contamination of the sample with microorganisms is determined by means of the most probable number technique.
The reading consists of a measurement of the fluorescence of the culture medium obtained after incubation. A large variation in the fluorescence values attests to acidification of the medium, said acidification itself resulting from the growth of one or more microorganisms.
The CV fluorescence values were calculated on the basis of the samples tested (not contaminated with Staphylococcus aureus).
The higher the CV, the greater the acidification of the medium, thereby attesting to growth of the microorganisms present in the culture medium. Conversely, the lower the CV, the less the acidification, thereby reflecting less growth of the microorganisms. The specificity of the medium is therefore better and the risk of false positives is therefore less (false-positive result linked to the acidification of the medium by a bacterium of a microorganism other than Staphylococcus aureus). […]

For the compound `CCCCCCCCO` [octanol], the “inhibition of the first step of spore germination” value (“inhibition” for short) in test [1] is “inhibited”.
As for `CCOC(=O)C(C)=O` [ethyl pyruvate], the “inhibition” value in test [1] is reported as “inhibited”.
Consider `C[C@@H](N)C(=O)O` [D-alanine], for which the “inhibition” value in test [1] was “inhibited”. The “% of samples with MPN count <10 (good specificity)” value in test [2] (59 milk powder samples, D-alanine 0.05-0.1 mol/l, 24-27 hours at 37° C.) came out at 89.83%. Moreover, the “rate of false-positive results” value in test [2] (59 milk powder samples, false positives related to growth of Bacillus) is given as 10.17%. Moreover, the “highest false-positive count result” value in test [2] (59 milk powder samples, with the use of D-alanine) is reported as ≤ 50 CFU/gram. Moreover, the “effect on CV values obtained after incubation of the medium” value in test [2] (D-alanine in the culture medium vs. medium without) is recorded as “greatly reduce the CV values”.
